Results on one compound are retold here after patent US6335372B1, “Treatment of obsessive compulsive disorder” (Orion Corporation, priority 2000, dated 2002).

The structures appear in SMILES notation.

In the test the test system is obsessive-compulsive symptoms. In words: Treatment of two patients having obsessive-compulsive symptoms with deramciclane. It counts as in vivo. The conditions noted are these: one 15 mg tablet twice daily (30 mg/day), 8 week treatment period. Here is the method: The efficacy of deramciclane in the treatment of OCD, is illustrated with two patients having obsessive-compulsive symptoms. These patients received one 15 mg tablet of deramciclane twice daily (=30 mg/day) for an eight-week active treatment period.

Take `CN(C)CCO[C@]1(c2ccccc2)C[C@H]2CC[C@]1(C)C2(C)C` [deramciclane, (1R,2S,4R)-(−)-2-phenyl 2-(dimethylaminoethoxy)-1,7,7-trimethyl-bicyclo[2.2.1]heptane]: the “obsessive-compulsive symptoms as assessed by the responsible physician” value is reported as “reduced in a clinically significant way”.
